Laboratory results as given in ChEMBL document CHEMBL4406882, “The plant-derived chalcone Xanthoangelol targets the membrane of Gram-positive bacteria” (Bioorg Med Chem, 2019).
The source made the active and inactive calls.

Columns and labels:
[1] = tested on: Staphylococcus aureus; assay: Antibacterial activity against mid-exponential growth phase of methicillin-resistant Staphylococcus aureus ATCC 700699 assessed as increase in cell lysis at 25 uM; format: functional, organism-based
[2] = tested on: Staphylococcus aureus; assay: Bactericidal activity against methicillin-resistant Staphylococcus aureus ATCC 700699 assessed as reduction in bacterial CFU at 4 times MIC measured for 30 mins; format: functional
[3] = tested on: Staphylococcus aureus; assay: Induction of membrane integrity impairment in methicillin-resistant Staphylococcus aureus ATCC 700699 at 10 uM measured for 3 hrs by PI staining based fluorescence assay; format: functional, organism-based
[4] = tested on: Staphylococcus aureus; assay: Induction of membrane integrity impairment in methicillin-resistant Staphylococcus aureus ATCC 700699 at 20 uM measured for 30 mins by DiOC2(3) probe based fluorescence assay; format: functional, organism-based

Measured: Activity

COc1c(N2C[C@@H]3CCCN[C@@H]3C2)c(F)cc2c(=O)c(C(=O)O)cn(C3CC3)c12
inactive: all assays above
